Consider eleven molecules from publication PMC5755735, “Discovery of indolylpiperazinylpyrimidines with dual-target profiles at adenosine A2A and dopamine D2 receptors for Parkinson's disease treatment” (PLoS ONE, 2018).

For assay [1], the target named is human A2A receptors expressed in CHO cells (Homo sapiens, UniProt P29274). Kind of assay: competition binding at human A2A adenosine receptors ([3H]NECA displacement). The settings on record: for Ki: displacement of [3H]NECA, CHO cells, 95% confidence limits, n = 3–6, read-out: Ki hA2A; for hA1/hA2A / hA3/hA2A: selectivity ratio of Ki values. The method, then: (§1) A two-step procedure was adopted to prepare membrane for radioligand binding from cells stably transfected with human adenosine receptor subtypes (hA1, hA2A and hA3 expressed on CHO cells). Firstly, cell fragments and nuclei were removed by using low-speed centrifugation (1,000 g for 10 min). After that, crude membrane fraction from supernatant was then sedimented at 100,000 g for 30 min. The membrane pellet was subsequently re-suspended in the specific binding buffer, frozen in liquid nitrogen and stored at -80°C. For measurement of adenylyl cyclase activity in the hA2B receptors, one-step centrifugation procedure was used; the homogenate was sedimented for 30 min at 54,000 g. The so-obtained crude membrane pellet was re-suspended in 50 mM Tris/HCl, pH 7.4 and used for the adenylyl cyclase assay immediately.
(§2) Non-specific binding was determined using theophylline 1 mM. […] Non-specific binding was determined using N^6-R-phenylisopropyl adenosine (R-PIA) 100 μM. ^41 The binding of [^3H]HEMADO to CHO cells transfected with hA3 adenosine receptors was carried out as described earlier. […] Non-specific binding was determined using R-PIA 100 μM.
(§3) The assay mixture was then filtered through the built-in filter at the bottom of the 96-well microplate filtration system (Millipore Multiscreen MAFC) and washed three times with 200 μL of cold buffer. After addition of 20 μL of scintillator to the dried filter plates, the filter bound radioactivity was counted on a Wallac Micro-Beta counter. All Ki values were calculated by non-linear curve fitting with the program SCTFIT [45].
(In general: Loss of bound radioactivity is the signal in a displacement assay; it reports binding, not function.)

Assay [2] addresses T1, human A2B receptors expressed in CHO cells (Homo sapiens, UniProt P29275).
T1 sequence (P29275 1-332): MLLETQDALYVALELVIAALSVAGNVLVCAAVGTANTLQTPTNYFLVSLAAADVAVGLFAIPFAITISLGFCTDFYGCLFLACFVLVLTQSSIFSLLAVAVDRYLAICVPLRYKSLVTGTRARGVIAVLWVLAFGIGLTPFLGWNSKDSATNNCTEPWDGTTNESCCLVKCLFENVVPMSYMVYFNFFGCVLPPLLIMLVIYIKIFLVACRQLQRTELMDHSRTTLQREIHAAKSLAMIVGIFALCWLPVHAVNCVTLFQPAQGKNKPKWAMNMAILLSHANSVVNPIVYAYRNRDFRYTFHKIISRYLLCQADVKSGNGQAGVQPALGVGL
Kind of assay: inhibition of NECA-stimulated adenylyl cyclase activity at hA2B.
Experimental: The membranes were incubated with about 150,000 cpm of [α-^32P]adenosine triphosphate ([α-^32P]ATP) and test compounds in different concentrations for 20 min. A non-linear regression analysis was applied to calculate the IC50 of the adenylyl cyclase activity assay. From the IC50 values, Ki values were then calculated using the Cheng and Prusoff equation [46].

Assay [3] concerns the target T2, human A3 receptors expressed in CHO cells (Homo sapiens, UniProt P0DMS8).
T2 sequence (P0DMS8 1-318): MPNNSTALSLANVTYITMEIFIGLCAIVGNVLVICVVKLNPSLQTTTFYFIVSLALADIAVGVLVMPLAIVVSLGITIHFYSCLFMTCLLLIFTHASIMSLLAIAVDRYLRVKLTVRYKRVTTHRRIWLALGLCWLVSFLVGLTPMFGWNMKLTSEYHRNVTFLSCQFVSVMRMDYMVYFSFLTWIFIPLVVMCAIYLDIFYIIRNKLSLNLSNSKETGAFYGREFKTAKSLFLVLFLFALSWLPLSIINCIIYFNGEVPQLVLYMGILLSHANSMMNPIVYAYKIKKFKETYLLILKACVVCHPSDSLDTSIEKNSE
The assay is described as follows: competition binding at human A3 adenosine receptors ([3H]HEMADO displacement). Particulars: displacement of [3H]HEMADO, 95% confidence limits, n = 3–6, read-out: Ki hA3. The method, then:
as §1, §2, §3

Assay [4] has as its target T3, human A1 receptors expressed in CHO cells (Homo sapiens, UniProt P30542).
T3 sequence (P30542 1-326): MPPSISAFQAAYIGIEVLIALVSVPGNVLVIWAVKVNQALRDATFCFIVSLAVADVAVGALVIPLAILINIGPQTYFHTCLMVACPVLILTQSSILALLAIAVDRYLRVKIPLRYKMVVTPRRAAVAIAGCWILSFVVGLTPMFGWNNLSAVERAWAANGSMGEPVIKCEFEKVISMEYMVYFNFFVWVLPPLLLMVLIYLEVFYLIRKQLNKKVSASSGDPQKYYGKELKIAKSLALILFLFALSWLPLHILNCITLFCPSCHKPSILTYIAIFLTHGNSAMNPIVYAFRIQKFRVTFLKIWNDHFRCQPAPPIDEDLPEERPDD
Kind of assay: competition binding at human A1 adenosine receptors ([3H]CCPA displacement). The settings on record: displacement of [3H]CCPA, 95% confidence limits, n = 3–6, read-out: Ki hA1. The method, then:
as §1, §2, §3

Where only a bound is given, the exact number is not on record here.

Sequence of human A2A receptors expressed in CHO cells (P29274 whole entry, the tested form may be a part): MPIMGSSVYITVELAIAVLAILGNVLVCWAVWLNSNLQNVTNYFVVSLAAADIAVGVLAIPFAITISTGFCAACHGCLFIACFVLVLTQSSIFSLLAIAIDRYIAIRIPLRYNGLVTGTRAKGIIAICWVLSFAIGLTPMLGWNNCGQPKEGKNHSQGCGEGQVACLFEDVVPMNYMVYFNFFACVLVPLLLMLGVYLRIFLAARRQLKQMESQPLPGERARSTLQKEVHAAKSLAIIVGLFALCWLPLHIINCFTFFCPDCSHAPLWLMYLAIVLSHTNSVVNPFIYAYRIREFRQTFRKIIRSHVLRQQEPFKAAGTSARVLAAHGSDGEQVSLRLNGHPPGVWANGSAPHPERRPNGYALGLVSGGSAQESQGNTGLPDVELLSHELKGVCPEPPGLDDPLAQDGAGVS

Usually Ki stands for a measure of affinity in units of concentration, obtained from inhibition or displacement. On to `Cc1cc(C)nc(N2CCN(CCCc3c[nH]c4ccccc34)CC2)n1` [Compound 11, 3‐{3‐[4‐(4,6‐Dimethylpyrimidin‐2‐yl)piperazin‐1‐yl]propyl}‐1H‐indole], for which the Ki in assay [1] is greater than 100 µM; in assay [2], greater than 20 µM.
Take `Cc1ccc2[nH]c(C(=O)N3CCN(c4nc(C)cc(C)n4)CC3)cc2c1` [Compound 23, 2‐[4‐(4,6‐Dimethylpyrimidin‐2‐yl)piperazine‐1‐carbonyl]‐5‐methyl‐1H‐indole]: the inhibition constant Ki was greater than 100 µM in assay [1], greater than 100 µM in assay [3], greater than 20 µM in assay [2] and greater than 100 µM in assay [4].
Turning to `Cc1cc(C)nc(N2CCN(C(=O)CCc3c[nH]c4ccccc34)CC2)n1` [Compound 7, 1‐[4‐(4,6‐Dimethylpyrimidin‐2‐yl)piperazin‐1‐yl]‐3‐(1H‐indol‐3-yl)propan‐1‐one], the Ki is greater than 100 µM in assay [1] and greater than 20 µM in assay [2].
Consider `Cc1cc(C)nc(N2CCN(C(=O)Cc3c[nH]c4cc(F)ccc34)CC2)n1` [Compound 19, 1‐[4‐(4,6‐Dimethylpyrimidin‐2‐yl)piperazin‐1‐yl]‐2‐(6‐fluoro‐1H‐indol‐3‐yl)ethan‐1‐one], for which the Ki was 26.9 µM in assay [1], greater than 30 µM in assay [3], greater than 20 µM in assay [2] and greater than 100 µM in assay [4]. Further, the hA1/hA2A in assay [1] is on record as greater than 4. The hA3/hA2A in assay [1] is recorded as greater than 1.
As to `Cc1cc(C)nc(N2CCN(C(=O)c3cc4cc(F)ccc4[nH]3)CC2)n1` [Compound 22, 2‐[4‐(4,6‐Dimethylpyrimidin‐2‐yl)piperazine‐1‐carbonyl]‐5‐fluoro‐1H‐indole], the Ki in assay [1] is greater than 100 µM; in assay [3], greater than 100 µM; in assay [2], greater than 20 µM; in assay [4], greater than 100 µM.
With `Cc1cc(C)nc(N2CCN(C(=O)CCCc3c[nH]c4ccccc34)CC2)n1` [Compound 8, 1‐[4‐(4,6‐Dimethylpyrimidin‐2‐yl)piperazin‐1‐yl]‐4‐(1H‐indol‐3‐yl)butan‐1‐one], the Ki in assay [1] was greater than 100 µM; in assay [2], greater than 20 µM.
For the molecule `Cc1cc(C)nc(N2CCN(C(=O)Cc3c(C)[nH]c4ccc(F)cc34)CC2)n1` [Compound 15, 1‐[4‐(4,6‐Dimethylpyrimidin‐2‐yl)piperazin‐1‐yl]‐2‐(5‐fluoro‐2‐methyl‐1H‐indol‐3‐yl)ethan‐1‐one], the Ki in assay [1] is 18.2 µM; in assay [3], greater than 30 µM; in assay [2] it was greater than 20 µM; in assay [4], greater than 100 µM. Also, in assay [1], the hA1/hA2A is greater than 6. Also, the hA3/hA2A in assay [1] is on record as greater than 2.
As to `Cc1cc(C)nc(N2CCN(CCCCc3c[nH]c4ccccc34)CC2)n1` [Compound 12, 3‐{4‐[4‐(4,6‐Dimethylpyrimidin‐2‐yl)piperazin‐1‐yl]butyl}‐1H‐indole], the Ki in assay [1] is greater than 100 µM; in assay [2] it was greater than 20 µM.
In the case of `COc1cccc2c(C(=O)N3CCN(c4nc(C)cc(C)n4)CC3)c[nH]c12` [Compound 20, 3‐[4‐(4,6‐Dimethylpyrimidin‐2‐yl)piperazine‐1‐carbonyl]‐7‐methoxy‐1H‐indole], the Ki is 3.63 µM in assay [1], greater than 30 µM in assay [3], greater than 20 µM in assay [2] and greater than 100 µM in assay [4]. In addition, the hA1/hA2A in assay [1] was greater than 28. The hA3/hA2A in assay [1] is listed as greater than 8. The “fold improvement in hA2A affinity” value in assay [1] (versus compound 5) is 3 fold.
`COc1ccc2[nH]c(C(=O)N3CCN(c4nc(C)cc(C)n4)CC3)cc2c1` [Compound 24, 2‐[4‐(4,6‐Dimethylpyrimidin‐2‐yl)piperazine‐1‐carbonyl]‐5‐methoxy‐1H‐indole]: the Ki in assay [1] is greater than 30 µM; in assay [3], greater than 30 µM; in assay [2], greater than 20 µM; in assay [4], greater than 30 µM.
Take `Cc1cc(C)nc(N2CCN(CCc3c(C)[nH]c4ccccc34)CC2)n1` [Compound 10, 3‐{2‐[4‐(4,6‐Dimethylpyrimidin‐2‐yl)piperazin‐1‐yl]ethyl}‐2‐methyl‐1H‐indole]: the Ki was 34.4 µM in assay [1], 39.8 µM in assay [3], greater than 20 µM in assay [2] and greater than 100 µM in assay [4]. Moreover, the hA1/hA2A in assay [1] is given as greater than 3. Also, the hA3/hA2A in assay [1] turned out to be 1.16.
